Data published in ChEMBL document CHEMBL1137248, “2-(3-Amino-3-deoxy-beta-D-xylofuranosyl)thiazole-4-carboxamide: a new tiazofurin analogue with potent antitumour activity” (Bioorg Med Chem Lett, 2006).

Legend:
Format in all cases: cell-based
HeLa = assay: Cytotoxicity against HeLa cells after 24 hrs by MTT assay; conditions: Homo sapiens
Jurkat = assay: Cytotoxicity against Jurkat cells after 24 hrs by MTT assay; conditions: Homo sapiens
K562 = assay: Cytotoxicity against human K562 cells after 24 hrs by MTT assay; conditions: K562, 24 h
MRC5 = assay: Cytotoxicity against MRC5 cells after 24 hrs by MTT assay; conditions: Homo sapiens, MRC5, 24 h
HT-29 = assay: Cytotoxicity against HT29 cells after 24 hrs by MTT assay; conditions: Homo sapiens, HT-29, 24 h

SMILES: NC(=O)c1csc([C@@H]2O[C@H](CO)[C@H](N)[C@H]2O)n1
- IC50 (HeLa): 280 nM
- IC50 (Jurkat): 60 nM
- IC50 (K562): 52 nM
- IC50 (MRC5): > 100000 nM
- IC50 (HT-29): 37 nM

SMILES: CC(=O)N[C@@H]1[C@@H](O)[C@H](c2nc(C(N)=O)cs2)O[C@@H]1CO
- IC50 (HeLa): > 100000 nM
- IC50 (Jurkat): 450 nM
- IC50 (K562): 95 nM
- IC50 (MRC5): 89700 nM
- IC50 (HT-29): 1000 nM

SMILES: NC(=O)c1csc([C@@H]2O[C@H](CO)[C@@H](O)[C@H]2O)n1 [TIAZOFURIN]
- IC50 (HeLa): 4760 nM
- IC50 (Jurkat): 140 nM
- IC50 (K562): 5290 nM
